Source: PubChem BioAssay AID248 (DTP/NCI, 2004)
Several values for one entry are separate records, joined by “and”; a condition that tells them apart may be missing. Equal entries are not always repeated. Inconclusive results and toxic doses are left out. Cut-off read from the data, not from the text of the source: active = T/C of 150% or more; inactive = T/C below 125%.

System: L1210 leukemia ip in BDF1 mice, survival T/C
Test: NCI In Vivo Anticancer Drug Screen. Data for tumor model L1210 Leukemia (intraperitoneal) in B6D2F1 (BDF1) mice
Conditions: endpoint: mean survival time, higher = longer survival
In short: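 Antitumor effect is assessed in tumor-bearing animals. Survival in the compound arm is compared with a vehicle-dosed control arm and expressed as their quotient.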

[1] = dose: 100.0 mg/kg/injection, schedule: Q04DX003 (ip), vehicle: saline
[2] = dose: 200.0 mg/kg/injection, schedule: Q04DX003 (ip), vehicle: saline
[3] = dose: 400.0 mg/kg/injection, schedule: Q04DX003 (ip), vehicle: saline
[4] = dose: 100.0 mg/kg/injection, schedule: Q01DX009 (ip), vehicle: saline
[5] = dose: 100.0 mg/kg/injection, schedule: Q04DX003 (ip), vehicle: saline with Tween-80
[6] = dose: 200.0 mg/kg/injection, schedule: Q01DX009 (ip), vehicle: saline
[7] = dose: 200.0 mg/kg/injection, schedule: Q04DX003 (ip), vehicle: saline with Tween-80
[8] = dose: 400.0 mg/kg/injection, schedule: Q01DX009 (ip), vehicle: saline
[9] = dose: 400.0 mg/kg/injection, schedule: Q04DX003 (ip), vehicle: saline with Tween-80
[10] = dose: 100.0 mg/kg/injection, schedule: Q01DX009 (ip), vehicle: Klucel (hydroxypropylcellulose) (HPC)
[11] = dose: 100.0 mg/kg/injection, schedule: Q01DX009 (ip), vehicle: saline with Tween-80
[12] = dose: 200.0 mg/kg/injection, schedule: Q01DX009 (ip), vehicle: saline with Tween-80
[13] = dose: 400.0 mg/kg/injection, schedule: Q01DX009 (ip), vehicle: saline with Tween-80
[14] = dose: 200.0 mg/kg/injection, schedule: Q01DX009 (ip), vehicle: Klucel (hydroxypropylcellulose) (HPC)
[15] = dose: 400.0 mg/kg/injection, schedule: Q01DX009 (ip), vehicle: Klucel (hydroxypropylcellulose) (HPC)
[16] = dose: 50.0 mg/kg/injection, schedule: Q01DX009 (ip), vehicle: saline with Tween-80
[17] = dose: 100.0 mg/kg/injection, schedule: Q04DX003 (ip), vehicle: Klucel (hydroxypropylcellulose) (HPC)
[18] = dose: 200.0 mg/kg/injection, schedule: Q04DX003 (ip), vehicle: Klucel (hydroxypropylcellulose) (HPC)
[19] = dose: 400.0 mg/kg/injection, schedule: Q04DX003 (ip), vehicle: Klucel (hydroxypropylcellulose) (HPC)

Measured: T/C

COC(=O)/C(C)=C\C=C(/C)C(=O)OC
inactive: [1] 100 % of control | [2] 116 % of control | [3] 97 % of control

COC1=CC(=O)C(C2CC(=O)c3c(O)cc(OC4OC(COC5OC(C)C(O)C(O)C5O)C(O)C(O)C4O)cc3O2)=CC1=O (stereo not drawn)
inactive: [4] 95 % of control | [5] 103 % of control | [6] 97 % of control | [7] 108 % of control | [8] 88 % of control | [9] 101 % of control

O=C(/C=C/c1ccco1)c1cccc([N+](=O)[O-])c1
inactive: dose: 100.0 mg/kg/injection, schedule: Q01DX001 (ip), vehicle: saline with Tween-80 97 % of control | dose: 200.0 mg/kg/injection, schedule: Q01DX001 (ip), vehicle: saline with Tween-80 95 % of control | dose: 400.0 mg/kg/injection, schedule: Q01DX001 (ip), vehicle: saline with Tween-80 92 % of control

N#CCCCCCCCCCC#N
inactive: dose: 10.0 mg/kg/injection, schedule: Q04DX003 (ip), vehicle: Klucel (hydroxypropylcellulose) (HPC) 93 % of control | dose: 20.0 mg/kg/injection, schedule: Q04DX003 (ip), vehicle: Klucel (hydroxypropylcellulose) (HPC) 100 % of control | dose: 40.0 mg/kg/injection, schedule: Q04DX003 (ip), vehicle: Klucel (hydroxypropylcellulose) (HPC) 109 % of control | [10] 96 % of control

Cc1cc(Cl)ccc1NC(=O)c1ccc(Cl)c(Cl)c1
inactive: [11] 88 % of control | [5] 100 % of control | [12] 93 % of control | [7] 96 % of control | [13] 93 % of control | [9] 94 % of control

O=[N+]([O-])c1cccc(C=Nc2ccccc2F)c1
inactive: [10] 94 % of control | [14] 98 % of control | [15] 98 % of control

NNC(=O)c1ccc([N+](=O)[O-])cc1
inactive: dose: 25.0 mg/kg/injection, schedule: Q01DX009 (ip), vehicle: saline with Tween-80 97 % of control | [16] 92 % of control | [11] 95 % of control | [5] 95 % of control

CC(=N\NC(N)=S)/C(=N/NC(N)=S)c1ccccc1
inactive: dose: 15.0 mg/kg/injection, schedule: Q01DX Z (ip), vehicle: carboxymethylcellulose (CMC) 107 % of control | dose: 30.0 mg/kg/injection, schedule: Q01DX Z (ip), vehicle: carboxymethylcellulose (CMC) 97 % of control | dose: 60.0 mg/kg/injection, schedule: Q01DX Z (ip), vehicle: carboxymethylcellulose (CMC) 95 % of control and 90 % of control | dose: 120.0 mg/kg/injection, schedule: Q01DX Z (ip), vehicle: carboxymethylcellulose (CMC) 93 % of control and 91 % of control | dose: 120.0 mg/kg/injection, schedule: Q01DX Z (oral), vehicle: carboxymethylcellulose (CMC) 110 % of control | dose: 240.0 mg/kg/injection, schedule: Q01DX Z (oral), vehicle: carboxymethylcellulose (CMC) 100 % of control | dose: 480.0 mg/kg/injection, schedule: Q01DX Z (ip), vehicle: carboxymethylcellulose (CMC) 88 % of control | dose: 480.0 mg/kg/injection, schedule: Q01DX Z (oral), vehicle: carboxymethylcellulose (CMC) 115 % of control | dose: 960.0 mg/kg/injection, schedule: Q01DX Z (oral), vehicle: carboxymethylcellulose (CMC) 104 % of control

CCN(CC)C(=O)Cn1ccc(NC(C)=O)nc1=O
inactive: [4] 104 % of control | [1] 106 % of control | [6] 98 % of control | [2] 113 % of control | [8] 98 % of control | [3] 111 % of control

CC(C)C#C/C=C/C(C)C
inactive: [16] 95 % of control | [11] 95 % of control | [12] 103 % of control

CCC(CCC(C)C1CCC2C3CC=C4CC(OC(=O)CCC(=O)O)CCC4(C)C3CCC12C)C(C)C (stereo not drawn)
inactive: [11] 101 % of control | [12] 96 % of control | [13] 92 % of control

O=C(CC1CC2CCC1C2)Nc1ccccc1 (stereo not drawn)
inactive: dose: 100.0 mg/kg/injection, schedule: Q01DX001 (ip), vehicle: saline 96 % of control | dose: 200.0 mg/kg/injection, schedule: Q01DX001 (ip), vehicle: saline 111 % of control | dose: 400.0 mg/kg/injection, schedule: Q01DX001 (ip), vehicle: saline 100 % of control

CC(=O)c1cc2cc(Br)ccc2oc1=O
inactive: [10] 98 % of control | [14] 88 % of control | [15] 96 % of control

CCCOC(=O)COc1ccccc1
inactive: [5] 96 % of control | [7] 96 % of control | [9] 93 % of control

CCCCNC(=O)c1cc(NC(=O)Nc2ccc(C3=NCCN3)cc2)cc(NC(=O)Nc2ccc(C3=NCCN3)cc2)c1
inactive: dose: 8.0 mg/kg/injection, schedule: Q01DX Z (ip), vehicle: carboxymethylcellulose (CMC) 122 % of control | dose: 16.0 mg/kg/injection, schedule: Q01DX Z (ip), vehicle: carboxymethylcellulose (CMC) 117 % of control | dose: 62.0 mg/kg/injection, schedule: Q01DX Z (ip), vehicle: carboxymethylcellulose (CMC) 122 % of control | dose: 125.0 mg/kg/injection, schedule: Q01DX Z (ip), vehicle: carboxymethylcellulose (CMC) 122 % of control | dose: 250.0 mg/kg/injection, schedule: Q01DX Z (ip), vehicle: carboxymethylcellulose (CMC) 110 % of control

Cc1ccc(NC(=O)Oc2ccc(Cl)cc2C)c([N+](=O)[O-])c1
inactive: [17] 102 % of control | [18] 101 % of control | [19] 91 % of control

CCCCCCCCCCOC(=O)N1C(=O)NC(=O)C1c1ccccc1 (stereo not drawn)
inactive: [10] 104 % of control | [17] 103 % of control | [14] 104 % of control | [18] 97 % of control | [15] 96 % of control | [19] 93 % of control

O=c1cc[nH]c2cc(Cl)ccc12
inactive: dose: 50.0 mg/kg/injection, schedule: Q01DX009 (ip), vehicle: saline 102 % of control | [4] 97 % of control

CCC(C)N(C)N=Nc1ccc(C(N)=O)cc1 (stereo not drawn)
inactive: dose: 178.0 mg/kg/injection, schedule: Q01DX001 (ip), vehicle: other 104 % of control | dose: 267.0 mg/kg/injection, schedule: Q01DX001 (ip), vehicle: other 112 % of control

Cc1ccc(N=Nc2cc(C)c(N)cc2N)c(S(=O)(=O)O)c1
inactive: dose: 100.0 mg/kg/injection, schedule: Q04DX003 (ip), vehicle: other 96 % of control | dose: 200.0 mg/kg/injection, schedule: Q04DX003 (ip), vehicle: other 105 % of control | dose: 400.0 mg/kg/injection, schedule: Q04DX003 (ip), vehicle: other 103 % of control

C=C(C)C1(Cc2ccccc2)C(=O)NC(=S)NC1=O
inactive: dose: 9.38 mg/kg/injection, schedule: Q01DX001 (ip), vehicle: saline 91 % of control | dose: 10.0 mg/kg/injection, schedule: Q01DX001 (ip), vehicle: saline 102 % of control

O=C1OC2CCCCC2c2ccccc21 (stereo not drawn)
inactive: [11] 98 % of control | [12] 103 % of control | [13] 103 % of control

CC(C)[As](C)(=O)O
inactive: dose: 6.25 mg/kg/injection, schedule: Q04DX003 (ip), vehicle: Klucel (hydroxypropylcellulose) (HPC) 101 % of control | dose: 12.5 mg/kg/injection, schedule: Q04DX003 (ip), vehicle: Klucel (hydroxypropylcellulose) (HPC) 97 % of control | dose: 25.0 mg/kg/injection, schedule: Q04DX003 (ip), vehicle: Klucel (hydroxypropylcellulose) (HPC) 102 % of control and 103 % of control
